Measured values from US20260112450A1, “METHODS FOR SELECTION OF CANCER PATIENTS FOR ANTI-ANGIOGENIC AND IMMUNE CHECKPOINT BLOCKAGE THERAPIES AND COMBINATIONS THEREOF” (Washington University, priority 2022, published 2026).
Where “and” joins values, the source holds several entries; their conditions need not be identical. Identical values can stand only once.

Legend:
[1] = test system: clear cell renal carcinoma; experiment: Braun dataset (Checkmate 025 and Checkmate 010): overall survival, re-evaluated by angio-immune subtype; assay type: in vivo, human; settings: for differences in median OS between angio-immune molecular subtypes: comparison of C1, C2 and C3 within one treatment arm
Source text: (§1) Immunotherapy datasets: Pre-treatment TPM normalized RNA sequencing data from anti-PD1/L1 and anti-CTLA4 treated cohorts were downloaded for the studies as described in Table 1. Studies were selected based on the following criteria: >20 samples for enrichment calculation, RNA sequencing of pre-treatment biopsies, and only anti-PD1/PDL1 treated patients. Gene signature enrichment and molecular subtypes were derived as described elsewhere in the manuscript. Survival and response rates to treatment when available were compared among angio-immune clusters.
(§2) Quantification and Statistical Analysis: Unless indicated elsewhere, all visualizations were completed in GraphPad Prism 9. GraphPad Prism 9 was used for all statistical analysis. Data is presented as mean±standard error of mean. One way ANOVA was used for comparison across more than two groups. Non-parametric tests were used when data was not normally distributed. Log rank tests were used for all survival analysis. Alpha value of 0.05 was used throughout the study.
(§3) The approval of the combination of avelumab, an anti-PDL1, and axitinib, a small molecule tyrosine kinase inhibitor, for the first-line treatment of metastatic renal cancer was provided in 2020. […] Next, it was sought to ascertain if stratification by angio-immune subtypes can confer more significant differences in responses and survival.
(§4) The enrichment of the 91 angio-immune signatures was scored using RNA sequencing data from pre-treatment biopsies.
Survival was tracked across clusters to identify if angio-immune molecular subtypes can inform treatment choice in this setting. […] To determine if patients belonging to C1, C2, and C3 derive clinical benefit from Nivolumab over everolimus, OS was tracked among angio-immune molecular subtypes across treatment arms.

[2] = test system: metastatic renal cancer; experiment: Javelin Renal 101 clinical trial: progression free survival, re-evaluated by angio-immune subtype; assay type: in vivo, human
Source text: as §1, §2, §3, §4
Survival was tracked across clusters to identify if angio-immune molecular subtypes can inform treatment choice in this setting.

[3] = all patients with pre-treatment RNA sequencing data, Braun dataset
[4] = patients in angio-immune subtype C1, Braun dataset
[5] = patients in angio-immune subtype C2, Braun dataset
[6] = patients in angio-immune subtype C3, Braun dataset

| Molecule | median OS [1, 3] | differences in median OS between angio-immune molecular subtypes [1] | median OS [1, 4] | median OS [1, 5] | median OS [1, 6] | median PFS ([2]; all patients with pre-treatment RNA sequencing data, Javelin Renal 101 dataset) | median PFS ([2]; patients in angio-immune subtype C1, Javelin Renal 101 dataset) | median PFS ([2]; patients in angio-immune subtype C2, Javelin Renal 101 dataset) | median PFS ([2]; patients in angio-immune subtype C3, Javelin Renal 101 dataset) | clinical benefit (OS) compared to everolimus ([1]; patients in C1, p=0.6347) | clinical benefit (OS) compared to everolimus ([1]; patients in C2, p=0.0581) | median OS compared to the everolimus arm ([1]; patients in C3, p<0.0043) |
| --- | --- | --- | --- | --- | --- | --- | --- | --- | --- | --- | --- | --- |
| CO[C@H]1C[C@@H]2CC[C@@H](C)[C@@](O)(O2)C(=O)C(=O)N2CCCC[C@H]2C(=O)O[C@H]([C@H](C)C[C@@H]2CC[C@@H](OCCO)[C@H](OC)C2)CC(=O)[C@H](C)/C=C(\C)[C@@H](O)[C@@H](OC)C(=O)[C@H](C)C[C@H](C)/C=C/C=C/C=C/1C [everolimus] | 19.7454 months | no significant differences | 24.6735 months | 21.13 months | 13.27 months |  |  |  |  |  |  |  |
| CCN(CC)CCNC(=O)c1c(C)[nH]c(/C=C2\C(=O)Nc3ccc(F)cc32)c1C [sunitinib] |  |  |  |  |  | 8.4 months | 9.7 months | 8.3 months | 8.2 months |  |  |  |
| Nivolumab: an anti-PD1 therapy | 25.9877 months | significant improvement in median OS | 16.9528 months | 36.961 months and 36.96 months | 29.8645 months and 29.86 months |  |  |  |  | no clinical benefit | no statistically significant clinical benefit | significantly improved |
